Experiments:
[1] = Expert panel tasting in aqueous solution of 0.5% NaCl; format: in vivo, people; conditions: panel of 5
From the text: Mixture A: An aqueous solution of 0.5% NaCl Mixture B: The same as A plus 10 ppm N-formyl-DL-phenylalanine Mixture A: An aqueous solution of 0.5% NaCl Mixture B: The same as A plus 50 ppm of N-acetyl-L-isoleucine Mixture A: An aqueous solution of 0.5% NaCl Mixture B: The same as A plus 10 ppm N-acetyl-DL-valine

[2] = Expert panel tasting in aqueous solution of 0.5% NaCl and 0.03% MSG; format: in vivo, people; conditions: panel of 5
From the text: Mixture C: An aqueous solution of 0.5% NaCl and 0.03% MSG.
Mixture D: The same as C plus 10 ppm N-formyl-DL-phenylalanine.
Mixture C: An aquesous solution of 0.5% NaCL and 0.03% MSG
Mixture D: The same as C plus 50 ppm of N-acetyl-L-isoleucine
Mixture A: An aqueous solution of 0.5% NaCl and 0.03% of MSG.
Mixture B: The same as A plus 25 ppm N-formyl-L-lysine
Mixture C: An aqueous solution of 0.5% NaCl and 0.03% MSG (Mono sodium glutamate)
Mixture D: The same as C plus 75 ppm of N-acetlyl DL-valine

[3] = Expert panel tasting in aqueous solution of 0.5% NaCl, 0.03% MSG and 0.002% ribonucleotides; format: in vivo; conditions: 50 ppm in 0.5% NaCl, panel of 5
From the text: Mixture A: An aqueous solution of 0.5% NaCl, 0.03% MSG and 0.002%
Ribonucleotides GMP:IMP, ratio 1:1)
Mixture B: The same as A plus50 ppm of N-hexanoyl-L-leucine
Mixture A: An aqueous solution of 0.5% NACl, 0.03% MSG and 0.002%
Ribonucleotides (1:1 GMP, IMP)
Mixture B: The same as A plus 50 ppm of N-pentanoyl-L-phenylalanine

[4] = Expert panel tasting, application on soy sauce; format: in vivo, people; conditions: for taste description of mixture B compared to mixture A, effect assigned to the compound: 150-300 ppm N-acetyl-DL-glutamic acid plus 50-200 ppm N-formyl-glycine together in 5% soy sauce, panel of 5
From the text: Mixture A: 5% of a standard soy sauce in water, Mixture B: Same as mixture A plus 150-300 ppm N-acetyl-DL-glutamic acid plus 50-200 ppm N-formyl-glycine. […] This effect could be assigned to N-acetyl glutamic acid.

[5] = Expert panel tasting, application on Bechamel sauce with cheese; format: in vivo, people; conditions: for taste description of mixture B compared to mixture A, effect assigned to the compound: 150-300 ppm N-acetyl-DL-glutamic acid plus 50-200 ppm N-formyl-glycine together in Bechamel sauce with cheese, panel of 5
Method: Mixture A: A Bechamel sauce with cheese was prepared by heating up 25 g of wheat flour in 35 g of butter in a saucepan. Let the flour cook shortly. Add 500 g milk, 2.5 g table salt, 0.15 g MSG, 0.075 g nutmeg powder, 0.125 g black pepper and 40 g of cheese powder. Boil the mixture for one minute. Mixture B: The same as mixture A plus 150-300 ppm N-acetyl-DL-glutamic acid plus 50-200 ppm N-formyl-glycine.

[6] = Panel of experienced tasters, cream cheese; format: in vivo, people; conditions: 150 ppm in cream cheese; panel of 8
From the text: 150 ppm of N-acetyl glutamic acid was thoroughly mixed into Philadelphia brand cream cheese. This product was tasted and compared with the original cream cheese by a panel of experienced tasters consisting of 8 people (5 men, 3 women aged 35-54).

[7] = Panel of experienced tasters, salad dressing; format: in vivo, people; conditions: 100 ppm in salad dressing; panel of 8
Method: 100 ppm of N-acetyl glutamic acid was dissolved in a common salad dressing (Remia met magere yoghurt). This product was tasted and compared with the original salad dressing by a panel of experienced tasters consisting of 8 people (5 men, 3 women aged 35-54).

[8] = Panel of experienced tasters, cooking oil; format: in vivo, people; conditions: 200 ppm in cooking oil; panel of 8
Method: 200 ppm of N-acetyl glutamic acid was dissolved in a common cooking oil (Becel kitchen). This product was tasted and compared with the original cooking oil by a panel of experienced tasters consisting of 8 people (5 men, 3 women aged 35-54).

[9] = Panel of experienced tasters, hamburgers; format: in vivo, people; conditions: 150 ppm in hamburgers, baked; panel of 8
Method: Hamburgers were prepared from 80% lean beef and 20% fat beef meat containing 0.5% salt, 0.15% black pepper and 0.15% onion powder and 150 ppm of N-acetyl glutamic acid. The hamburgers were baked without additional fat and compared with the same batch of meat to which no N-acetyl glutamic acid was added. This product was tasted and compared with the original hamburgers by a panel of experienced tasters consisting of 8 people (5 men, 3 women aged 35-54).

[10] = Panel of experienced tasters, instant mashed potato; format: in vivo, people; conditions: 150 ppm in mashed potato; panel of 8
Method: A standard instant mashed potato powder (Albert Heijn huismerk) was prepared and mixed with 150 ppm of N-acetyl glutamic acid. This product was tasted and compared with the original mashed potatoes by a panel of experienced tasters consisting of 8 people (5 men, 3 women aged 35-54).

[11] = Panel of experienced tasters, potato chips with cheese sour cream flavour; format: in vivo, people; conditions: amount not given, panel of 8
Method: Potato chips were prepared in house. A cheese sour cream flavour was prepared by mixing salt (1.5 weight % on the chips), MSG (0.05), whey powder (2.5), cheese powder (1.5), cream powder (0.2), buttermilk powder (0.4) and onion powder (0.2) The powder was applied on plain potato chips. This product was tasted and compared with the chips without N—Ac—Glu by a panel of experienced tasters consisting of 8 people (5 men, 3 women aged 35-54).

[12] = Panel of experienced tasters, tomato soup; format: in vivo, people; conditions: 100 ppm in tomato soup; panel of 8
Method: To a standard tomato soup (Albert Heijn huismerk) was added 100 ppm of N-acetyl glutamic acid. This product was tasted and compared with the original tomato soup by a panel of experienced tasters consisting of 8 people (5 men, 3 women aged 35-54).

[13] = Panel of experienced tasters, cola; format: in vivo, people; conditions: 100 ppm in cola; panel of 8
Method: To a standard cola (Pepsi or Coke cola) was added 100 ppm of N-acetyl glutamic acid. This product was tasted and compared with the original colas by a panel of experienced tasters consisting of 8 people (5 men, 3 women aged 35-54).

[14] = Panel of experienced tasters, soy milk; format: in vivo, people; conditions: 100 ppm in soy milk; panel of 8
Method: To a standard soy milk (Alpro) was added 100 ppm of N-acetyl glutamic acid. This product was tasted and compared with the original soy milk by a panel of experienced tasters consisting of 8 people (5 men, 3 women aged 35-54).

[15] = Panel of experienced tasters, coffee beverage; format: in vivo, people; conditions: 150 ppm in coffee beverage; panel of 8
Method: To a coffee beverage (Starbuck's frappucino) was added 150 ppm of N-acetyl glutamic acid. This product was tasted and compared with the original coffee beverage by a panel of experienced tasters consisting of 8 people (5 men, 3 women aged 35-54).

[16] = Panel of experienced tasters, vanilla yoghurt; format: in vivo, people; conditions: 100 ppm in vanilla yoghurt; panel of 8
Method: To a standard vanilla yoghurt (Campina) was added 100 ppm of N-acetyl glutamic acid. This product was tasted and compared with the original vanilla yoghurt by a panel of experienced tasters consisting of 8 people (5 men, 3 women aged 35-54).

[17] = Expert panel tasting in salt reduced soy sauce; format: in vivo; conditions: 0.04 ppm in salt reduced soy sauce
From the text: Mixture A: salt reduced Kikkoman soy sauce containing 9% salt Mixture B: same as Mixture A plus 0.04 ppm N-acetyl-methionine

[18] = Expert tasters, beef bouillon tasted warm; format: in vivo; conditions: 40 ppb in beef bouillon
From the text: Mixture C: commercially available beef bouillon Mixture D: same as Mixture C plus 40 ppb N-acetyl-methionine The soups were tasted warm by a group of expert tasters.

[19] = Expert panel tasting in chicken broth; format: in vivo, people; conditions: 100 ppm in chicken broth; panel of 5
From the text: Mixture A: A chicken broth Mixture B: The same as A plus 100 ppm of N-acetyl-L-tyrosine

Question: What does the source list for `O=CNC(Cc1ccccc1)C(=O)O` (racemic) [N-formyl-DL-phenylalanine]?
Answer: taste description of mixture B compared to mixture A ([1]; 10 ppm in 0.5% NaCl): more salty; taste description of mixture D compared to mixture C ([2]; 10 ppm in 0.5% NaCl and 0.03% MSG): more umami

Question: Which “taste description of mixture B compared to mixture A” value [3] does the source give for `CCCCCC(=O)N[C@@H](CC(C)C)C(=O)O` [N-hexanoyl-L-leucine] here?
Answer: more salty and umami

Question: With `CCCCC(=O)N[C@@H](Cc1ccccc1)C(=O)O` [N-pentanoyl-L-phenylalanine] as the compound, how does the “taste description of mixture B compared to mixture A” value [3] read?
Answer: more salty and umami

Question: Which results are given for `CC(=O)N[C@@H](CCC(=O)O)C(=O)O` [N-acetyl glutamic acid]?
Answer: taste description of mixture B compared to mixture A, effect assigned to the compound [4]: more umami and more lingering savoury; taste description of mixture B compared to mixture A, effect assigned to the compound [5]: more lingering, and giving fullness, depth and aftertaste of dairy cheese products; taste description compared with the original product [6]: saltier, creamier, more umami, more body, lingering and mouth-coating; taste description compared with the original product [7]: more balanced, less sour, fuller, salivating and more lingering; taste description compared with the original product [8]: more fatty, more creamy, more mouthcoating and gave a better buttery aftertaste; taste description compared with the original product [9]: more meaty, more succulent, more juicy, more fatty and more expanding in the mouth; taste description compared with the original product [10]: more salty, more creamy and more full; taste description compared with the chips without N-Ac-Glu [11]: more salty, more creamy, gave more mouthwatering and had increased cheese intensity; taste description compared with the original product [12]: less sour, had more body, was more salivating and had a stronger cooked taste; taste description compared with the original product [13]: slightly less acidic, more syrupy and more smooth; taste description compared with the original product [14]: slightly more sweet and masked some of the soy off-notes; taste description compared with the original product [15]: slightly more bitter, had reduced metallic retort notes and had increased carmellic notes; taste description compared with the original product [16]: less sour, more intense vanilla, more creamy, lingering and had more body

Question: Which results are given for `O=CNCC(=O)O` [N-formyl glycine]?
Answer: taste description of mixture B compared to mixture A, effect assigned to the compound [4]: stronger initial salt spike, was more long-lasting, complex and more succulent; taste description compared to pure mixture A ([4]; only 50-200 ppm N-formyl-glycine on top of mixture A): more salty, more complex, long lasting and succulent; taste description of mixture B compared to mixture A, effect assigned to the compound [5]: stronger initial bite, is more salty and more complex; taste description compared to pure mixture A ([5]; only 50-200 ppm N-formyl glycine on top of mixture A): more bite, more complex note and saltiness

Question: For `CC(=O)NC(CCC(=O)O)C(=O)O` (racemic) [N-acetyl-DL-glutamic acid], which “taste description compared to mixture A” value ([5]; only 150-300 ppm N-acetyl-DL-glutamic acid on top of mixture A) is on record?
Answer: more fullness, depth and aftertaste of cheese

Question: What does the source list for `CSCCC(NC(C)=O)C(=O)O` (stereo not shown) [N-acetyl-methionine, N-acetyl-methionine (2-acetamido-4-(methylthio)butanoic acid)]?
Answer: taste description of mixture B compared to mixture A [17]: more salty and has more upfront salty taste; taste description of mixture D compared to mixture C [18]: more salty, longer lasting and lifts the garlic component

Question: With `CC(=O)N[C@@H](CCC(=O)O)C(=O)O` [N-acetyl-L-glutamic acid] as the compound, how does the “taste description compared to mixture A” value ([4]; only 50 -300 ppm N-acetyl-L-glutamic acid on top of mixture A) read?
Answer: more umami and more lingering savoury

Question: For `CC(=O)NC(C(=O)O)C(C)C` (racemic) [N-acetyl-DL-valine], which “taste description of mixture B compared to mixture A” value ([1]; 10 ppm in 0.5% NaCl) is on record?
Answer: more initially salty

Question: And the “taste description of mixture D compared to mixture C” value ([2]; 75 ppm in 0.5% NaCl and 0.03% MSG)?
Answer: more lingering umami and salivating

Question: Which “taste description of mixture B compared to mixture A” value ([1]; 50 ppm in 0.5% NaCl) does the source give for `CC[C@H](C)[C@H](NC(C)=O)C(=O)O` [N-acetyl-L-isoleucine] here?
Answer: more salty

Question: What about the “taste description of mixture D compared to mixture C” value ([2]; 50 ppm in 0.5% NaCl and 0.03% MSG) of the same compound?
Answer: more umami

Question: Which “taste description of mixture B compared to mixture A” value ([2]; 25 ppm in 0.5% NaCl and 0.03% MSG) does the source give for `NCCCCC(NC=O)C(=O)O` [N-formyl-L-lysine, alpha-N-formyl-L-lysine] here?
Answer: more umami

Question: Which “taste description of mixture B compared to mixture A” value [19] does the source give for `CC(=O)N[C@@H](Cc1ccc(O)cc1)C(=O)O` [N-acetyl-L-tyrosine] here?
Answer: more salty, lingering umami and shows delayed numbing
